SMILES strings stand for the structures. pEC50: −log10 of the molar value. Where a name gives a salt, the structure may show the parent alone.

This experiment has as its target T1, human ALX receptor (Homo sapiens, UniProt P25090).
T1 construct: expressed in transfected cells; host or cells: HEK293 (HEK293-hALXR-Gα16)
T1 sequence (P25090 1-351): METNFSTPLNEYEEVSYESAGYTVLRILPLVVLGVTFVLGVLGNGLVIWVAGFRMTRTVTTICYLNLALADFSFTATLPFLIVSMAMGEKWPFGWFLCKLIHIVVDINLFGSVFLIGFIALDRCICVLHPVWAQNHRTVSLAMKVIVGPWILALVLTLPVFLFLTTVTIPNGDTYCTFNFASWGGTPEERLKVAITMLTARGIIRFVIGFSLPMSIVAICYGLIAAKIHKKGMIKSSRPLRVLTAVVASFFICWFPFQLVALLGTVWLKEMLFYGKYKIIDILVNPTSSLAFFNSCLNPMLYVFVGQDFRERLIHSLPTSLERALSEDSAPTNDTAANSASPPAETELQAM
Briefly: Intracellular calcium measurements (FLIPR) in HEK293-hALXR-Gα16 cells, agonistic activity. The experiment is classed as cell-based. The note with it: values normalized to WKYMVm 10 nM. As to the method: The ALX receptor and FPRL2 agonistic activities of the compounds of formula (I) are determined in accordance with the following experimental method.
Intracellular Calcium Measurements:
Cells expressing recombinant human ALX receptor and the G-protein Gα16 (HEK293-hALXR-Gα16) were grown to 80% confluency in Growing Medium (GM). Cells were detached from culture dishes with a cell dissociation buffer (Invitrogen, 13151-014), and collected by centrifugation at 1,000 rpm at rt for 5 min in Assay Buffer (AB) (equal parts of Hank's BSS (Gibco, 14065-049) and DMEM without Phenol Red (Gibco, 11880-028)). After 60 min incubation at 37° C. under 5% CO2 in AB supplemented with 1 μM Fluo-4 (AM) (Invitrogen, F14202), and 20 mM HEPES (Gibco, 15630-056), the cells were washed and resuspended in AB. They were then seeded onto 384-well FLIPR assay plates (Greiner, 781091) at 50,000 cells in 70 μl per well and sedimented by centrifugation at 1,000 rpm for 1 min. Stock solutions of test compounds were made up at a concentration of 10 mM in DMSO, and serially diluted in AB to concentrations required for activation dose response curves. WKYMVm (Phoenix Peptides) was used as a reference agonist. FLIPR384 or FLIPR Tetra instruments (Molecular Devices) were operated according to the manufacturer's standard instructions, adding 4 μl of test compound dissolved at 10 mM in DMSO and diluted prior to the experiment in assay buffer to obtain the desired final concentration. Changes in fluorescence were monitored before and after the addition of test compounds at lex=488 nm and lem=540 nm. Emission peak values above base level after compounds addition were exported after base line subtraction. Values were normalized to high-level control (WKYMVm compound, 10 nM final concentration) after subtraction of the base line value (AB addition).
With `O=C(Nc1ccc(Br)cc1)C1C(C(=O)OCC2CCNCC2)C2C=CC1C21CC1` [Example 35, (1R,4S,5R,6R)-[Piperidin-4-ylmethyl 5-((4-bromophenyl)carbamoyl)spiro[bicyclo[2.2.1]hept[2]ene-7,1′-cyclopropane]-6-carboxylate]], the pEC50 was 8.54. For `O=C(OCCC1CCCNC1)[C@H]1[C@H](C(=O)Nc2ccc(Br)nc2)[C@@H]2CC[C@H]1C21CC1` (stereo partly drawn) [Example 10, (1S,2R,3R,4R)-[2-(Piperidin-3-yl)ethyl 2-((6-bromopyridin-3-yl)carbamoyl)spiro[bicyclo[2.2.1]heptane-7,1′-cyclopropane]-3-carboxylate]hydrochloride], the pEC50 is 8.51. As for `Cc1cc(CNC(=O)[C@H]2[C@H](C(=O)OCC3CCNCC3)[C@H]3CC[C@@H]2C32CC2)no1` [Example 3, (1S,2R,3R,4R)-[Piperidin-4-ylmethyl 2-(((5-methylisoxazol-3-yl)methyl)carbamoyl)spiro[bicyclo[2.2.1]heptane-7,1′-cyclopropane]-3-carboxylate]hydrochloride], the pEC50 is 7.64. As for `CN1C(C)(C)CC(OC(=O)[C@H]2[C@H](C(=O)Nc3ccc(Br)nc3)[C@@H]3CC[C@H]2C32CC2)CC1(C)C` [Example 8, (1S,2R,3R,4R)-[1,2,2,6,6-Pentamethylpiperidin-4-yl 2-((6-bromopyridin-3-yl)carbamoyl)spiro[bicyclo[2.2.1]heptane-7,1′-cyclopropane]-3-carboxylate]], the pEC50 is 6.12. Consider `CN1CCC(OC(=O)[C@H]2[C@H](C(=O)Nc3ccc(Br)nc3)[C@@H]3CC[C@H]2C32CC2)C1` (stereo partly drawn) [Example 14, (1S,2R,3R,4R)-[1-Methylpyrrolidin-3-yl 2-((6-bromopyridin-3-yl)carbamoyl)spiro[bicyclo[2.2.1]heptane-7,1′-cyclopropane]-3-carboxylate]], for which the pEC50 was 7.59. Regarding `O=C(OCCC1CCNCC1(F)F)[C@H]1[C@H](C(=O)Nc2ccc(Br)nc2)[C@@H]2CC[C@H]1C21CC1` (stereo partly drawn) [Example 73, (1S,2R,3R,4R)-[2-(3,3-Difluoro-piperidin-4-yl)ethyl 2-((6-bromopyridin-3-yl)carbamoyl)spiro[bicyclo[2.2.1]heptane-7,1′-cyclopropane]-3-carboxylate]], the pEC50 was 6.57. As for `O=C(OC1CCNCC1(F)F)[C@H]1[C@H](C(=O)Nc2ccc(Br)nc2)[C@@H]2CC[C@H]1C21CC1` (stereo partly drawn) [Example 56, (1S,2R,3R,4R)-[(3,3-Difluoro-piperidin-4-yl) 2-((6-bromopyridin-3-yl)carbamoyl)spiro[bicyclo[2.2.1]heptane-7,1′-cyclopropane]-3-carboxylate]], the figure is 7.55; as for `O=C(OC1CCN(Cc2ccccc2)CC1)[C@H]1[C@H](C(=O)Nc2ccc(Br)nc2)[C@@H]2CC[C@H]1C21CC1` [Example 76, (1S,2R,3R,4R)-[1-Benzyl-piperidin-4-yl 2-((6-bromopyridin-3-yl)carbamoyl)spiro[bicyclo[2.2.1]heptane-7,1′-cyclopropane]-3-carboxylate]], 5.69; as for `Cc1cc(CNC(=O)[C@H]2[C@H](C(=O)OCC3CCCCN3C)[C@H]3CC[C@@H]2C32CC2)no1` (stereo partly drawn) [Example 26, (1S,2R,3R,4R)-[1-Methyl-piperidin-2-ylmethyl 2-(((5-methylisoxazol-3-yl)methyl)carbamoyl)spiro[bicyclo[2.2.1]heptane-7,1′-cyclopropane]-3-carboxylate]], 6.39. As for `O=C(OC1CCNCC1)[C@H]1[C@H](C(=O)NCc2ccc(Br)cc2F)[C@@H]2CC[C@H]1C21CC1` [Example 60, (1S,2R,3R,4R)-[Piperidin-4-yl 2-((4-bromo-2-fluorobenzyl)carbamoyl)spiro[bicyclo[2.2.1]heptane-7,1′-cyclopropane]-3-carboxylate]], the figure is 7.36.

Regarding `COCCOC(=O)[C@H]1[C@H](C(=O)Nc2ccc(Br)nc2)[C@@H]2CC[C@H]1C21CC1` [Example 7, (1S,2R,3R,4R)-[2-Methoxyethyl 2-((6-bromopyridin-3-yl)carbamoyl)spiro[bicyclo[2.2.1]heptane-7,1′-cyclopropane]-3-carboxylate]], the pEC50 is 6.52. In the case of `Cc1cc(CNC(=O)[C@H]2[C@H](C(=O)OCC3(F)CCNCC3)[C@H]3CC[C@@H]2C32CC2)on1` [Example 51, (1S,2R,3R,4R)-[(4-Fluoro-piperidin-4-yl)methyl 2-(((3-methylisoxazol-5-yl)methyl)carbamoyl)spiro[bicyclo[2.2.1]heptane-7,1′-cyclopropane]-3-carboxylate]], the negative logarithm of the EC50 (pEC50) was 7.95. As to `CC(CC(F)(F)CN1CCCC1)OC(=O)[C@H]1[C@H](C(=O)Nc2ccc(Br)nc2)[C@@H]2CC[C@H]1C21CC1` (stereo partly drawn) [Example 77, (1S,2R,3R,4R)-[(4,4-Difluoro-5-(pyrrolidin-1-yl))pent-2-yl 2-((6-bromopyridin-3-yl)carbamoyl)spiro[bicyclo[2.2.1]heptane-7,1′-cyclopropane]-3-carboxylate]], the pEC50 was 5.76. As to `Cc1cc(CNC(=O)[C@H]2[C@H](C(=O)OCC[C@H]3CCNC[C@H]3F)[C@H]3CC[C@@H]2C32CC2)on1` (relative stereo) [Example 39, (1S,2R,3R,4R)-[2-(cis-3-Fluoro-piperidin-4-yl)ethyl 2-(((3-methylisoxazol-5-yl)methyl)carbamoyl)spiro[bicyclo[2.2.1]heptane-7,1′-cyclopropane]-3-carboxylate]], the pEC50 is 8.43. In the case of `O=C(OCCCC(=O)N1CCCC1)[C@H]1[C@H](C(=O)Nc2ccc(Br)nc2)[C@@H]2CC[C@H]1C21CC1` [Example 67, (1S,2R,3R,4R)-[(4-Pyrrolidino-4-oxobutyl) 2-((6-bromopyridin-3-yl)carbamoyl)spiro[bicyclo[2.2.1]heptane-7,1′-cyclopropane]-3-carboxylate]], the pEC50 was 6.90.

Take `O=C(OCCOCCN1CC[C@H](F)C1)[C@H]1[C@H](C(=O)Nc2ccc(Br)nc2)[C@@H]2CC[C@H]1C21CC1` [Example 48, (1S,2R,3R,4R)-[(S)-2-(2-(3-Fluoropyrrolidin-1-yl)ethoxy)ethyl 2-((6-bromopyridin-3-yl)carbamoyl)spiro[bicyclo[2.2.1]heptane-7,1′-cyclopropane]-3-carboxylate]]: the negative-log EC50 (pEC50) was 8.00. Regarding `O=C(OCCOCCN1CCCC1)[C@H]1[C@H](C(=O)NCc2ccc(Br)cc2F)[C@@H]2CC[C@H]1C21CC1` [Example 32, (1S,2R,3R,4R)-[2-(2-(Pyrrolidin-1-yl)ethoxy)ethyl 2-((4-bromo-2-fluorobenzyl)carbamoyl)spiro[bicyclo[2.2.1]heptane-7,1′-cyclopropane]-3-carboxylate]], the pEC50 is 6.65. With `Cc1cc(CNC(=O)[C@H]2[C@H](C(=O)O[C@H]3CCNC[C@H]3F)[C@H]3CC[C@@H]2C32CC2)on1` (relative stereo) [Example 62, (1S,2R,3R,4R)-[cis-(3-Fluoro-piperidin-4-yl) 2-(((3-methylisoxazol-5-yl)methyl)carbamoyl)spiro[bicyclo[2.2.1]heptane-7,1′-cyclopropane]-3-carboxylate]] the figure was 7.11; with `Cc1cc(CNC(=O)[C@H]2[C@H](C(=O)OCC3CCNCC3)[C@H]3CC[C@@H]2C32CC2)on1` [Example 52, (1S,2R,3R,4R)-[(Piperidin-4-yl)methyl 2-(((3-methylisoxazol-5-yl)methyl)carbamoyl)spiro[bicyclo[2.2.1]heptane-7,1′-cyclopropane]-3-carboxylate]], 7.94; with `O=C(OCCCC(F)(F)CN1CCCC1)[C@H]1[C@H](C(=O)Nc2ccc(Br)nc2)[C@@H]2CC[C@H]1C21CC1` [Example 78, (1S,2R,3R,4R)-[(4,4-Difluoro-5-(pyrrolidin-1-yl))pent-1-yl 2-((6-bromopyridin-3-yl)carbamoyl)spiro[bicyclo[2.2.1]heptane-7,1′-cyclopropane]-3-carboxylate]], 5.43. In the case of `O=C(OC1CCCNC1)[C@H]1[C@H](C(=O)Nc2ccc(Br)nc2)[C@@H]2CC[C@H]1C21CC1` (stereo partly drawn) [Example 9, (1S,2R,3R,4R)-[Piperidin-3-yl 2-((6-bromopyridin-3-yl)carbamoyl)spiro[bicyclo[2.2.1]heptane-7,1′-cyclopropane]-3-carboxylate]hydrochloride], the pEC50 was 8.60.

These data come from US9187435B2, “Bridged Spiro[2.4]heptane ester derivatives” (Actelion Pharmaceuticals Ltd., priority 2010, dated 2015).
